In patent US20020128231A1 (priority 2000, published 2002):

Assays:
[1] = tested on: MDR1-expressing NIH 3T3 cells; test: Cytotoxicity (MTT) assay: modulation of drug cytotoxicity in multidrug resistant cells; details: compound 5 μM; 50 nM doxorubicin; 72 hours; MTT
Procedure: Cytotoxicity assays were performed with many of the compounds of Formula I to verify their usefulness as inhibitors of P-gp.
Parental NIH3T3 Swiss mouse embryo cell line was obtained from American Type Culture Collection and was grown in Dulbecco's Modified Eagles Medium supplemented with 4.5 g/L glucose, 10% fetal bovine serum, 2 mM L-glutamine, and 0.01 mg/ml gentamicin. […] All cells were maintained in a humidified atmosphere with 5% CO2 at 37° C.
Parental and MDR1-expressing NIH 3T3 cells were plated at a density of 2.5-3.0×10^3 cells/well in 96-well microtiter plates and were exposed to 50 nM of doxoriubicin, 7.5 nM vinblastine, 75 nM colchicine or 300 nM paclitaxel for 72 hours. Cell viability was determined with the colorimetric MTT (3-(4,5-dimethylthiazol-2-yl)-2,5-diphenyl tetrazolium) assay as previously described (Mosmann T., J. Immunol. Methods, 65: 55-63 (1983); Hansen M. B. et al., J. Immunol. Methods, 119: 203-210 (1989)) and the absorbance was measured at 570 nm.

P-glycoprotein = P-glycoprotein (Homo sapiens, UniProt P08183); test: Rhodamine 123 transport assay across HCT-8 cell monolayers; details: compound 10 μM, Rh123 15 μM, HCT-8 cells; for inhibition at 10 μM: human, HCT-8 cell monolayers in Transwell dishes, probe Rhodamine 123 (15 μM), % Inhibition of R123 Transport
P-glycoprotein, sequence (P08183 whole entry): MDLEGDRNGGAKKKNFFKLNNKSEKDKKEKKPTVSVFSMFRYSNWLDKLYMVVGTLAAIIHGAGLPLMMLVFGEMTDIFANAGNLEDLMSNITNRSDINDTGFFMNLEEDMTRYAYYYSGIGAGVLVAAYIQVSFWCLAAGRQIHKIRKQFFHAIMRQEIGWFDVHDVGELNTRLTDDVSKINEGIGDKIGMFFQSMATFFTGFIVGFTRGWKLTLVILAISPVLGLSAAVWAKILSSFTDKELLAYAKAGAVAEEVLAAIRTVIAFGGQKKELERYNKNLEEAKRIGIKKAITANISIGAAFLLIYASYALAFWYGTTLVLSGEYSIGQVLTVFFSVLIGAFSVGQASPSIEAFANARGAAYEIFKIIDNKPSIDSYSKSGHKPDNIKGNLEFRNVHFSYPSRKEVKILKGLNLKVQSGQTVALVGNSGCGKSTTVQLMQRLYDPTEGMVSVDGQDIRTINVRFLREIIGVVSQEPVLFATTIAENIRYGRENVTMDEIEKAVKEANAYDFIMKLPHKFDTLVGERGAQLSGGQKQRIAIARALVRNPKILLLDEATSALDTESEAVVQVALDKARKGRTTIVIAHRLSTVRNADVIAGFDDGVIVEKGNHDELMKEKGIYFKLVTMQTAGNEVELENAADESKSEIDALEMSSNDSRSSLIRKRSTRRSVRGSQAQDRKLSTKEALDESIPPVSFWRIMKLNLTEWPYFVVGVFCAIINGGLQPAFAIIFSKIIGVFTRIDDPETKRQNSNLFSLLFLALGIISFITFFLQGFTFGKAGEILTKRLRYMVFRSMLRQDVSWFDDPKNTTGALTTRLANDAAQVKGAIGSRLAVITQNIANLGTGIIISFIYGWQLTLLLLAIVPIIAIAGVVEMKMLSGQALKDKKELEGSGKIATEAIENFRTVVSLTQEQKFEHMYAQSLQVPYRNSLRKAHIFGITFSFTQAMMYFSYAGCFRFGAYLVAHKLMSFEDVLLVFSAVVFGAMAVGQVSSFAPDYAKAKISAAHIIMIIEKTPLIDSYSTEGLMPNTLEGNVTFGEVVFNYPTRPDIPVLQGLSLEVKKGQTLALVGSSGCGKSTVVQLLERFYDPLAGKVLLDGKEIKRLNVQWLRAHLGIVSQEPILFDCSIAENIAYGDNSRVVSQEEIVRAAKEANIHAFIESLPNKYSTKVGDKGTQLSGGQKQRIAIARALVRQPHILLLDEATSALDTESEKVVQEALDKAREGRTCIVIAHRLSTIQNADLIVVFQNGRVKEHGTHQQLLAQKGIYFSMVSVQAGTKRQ
Procedure: The human ileocecal adenocarcinoma cell line HCT-8 was grown in RPMI-1640 medium supplemented with 10% horse serum, 1 mM sodium pyruvate and 0.01 mg/ml gentamicin. All cells were maintained in a humidified atmosphere with 5% CO2 at 37° C.
Rhodamine 123 transport was examined as previously described (Hunter J. et al., Simmons, Br. J. Cancer, 64: 437444 (1991); Kim A. E. et al., J. Pharm. Exp. Ther., 286: 1439-1445 (1998)) using HCT-8 cells. Particularly, cells were grown in 6 well Corning Transwell dishes until a tight monolayer was formed. Rh123 was added at a final concentration of 15 μM to the basal or apical compartments and 200 μl samples were taken at the indicated times from the opposite chamber. Fluorescence of Rh123 in the media samples was measured using a fluorescence plate reader with an excitation wavelength of 485 nm and an emission wavelength of 530 nm.

SMILES | Modulation of Drug Resistance (percentage increase in doxorubicin cytotoxicity in the presence of the compounds versus in their absence) [1] [%] | inhibition at 10 μM (P-glycoprotein) [%] | % Inhibition of R123 Transport (P-glycoprotein) [%]
COc1ccc(C2c3cc(OC)c(OC)cc3C(CC(=O)N3CCC(Cc4ccccc4)CC3)C2C(=O)N2CCC(Cc3ccccc3)CC2)cc1OC (centres unmarked) [AV-159, 2-[2-(4-benzylpiperidine-1-carbonyl)-3-(3,4-dimethoxyphenyl)-5,6-dimethoxy-indan-1-yl]-1-(4-benzylpiperidin-1-yl)-ethanone] | 56.06 | 81.4 | 
COc1cc(C2c3cc(O)c(OC)cc3C(CC(=O)N3CCC(Cc4ccccc4)CC3)C2C(=O)N2CCC(Cc3ccccc3)CC2)ccc1O (single isomer, unassigned) [AV-251-1] | −6.9 |  | 79.26
CCOc1ccc(C2c3cc(OCC)c(OC)cc3C(CC(=O)N3CCN(c4ccccc4OCC)CC3)C2C(=O)N2CCN(c3ccccc3OCC)CC2)cc1OC (centres unmarked) [AV-207, 2-{5-ethoxy-3-(4-ethoxy-3-methoxyphenyl)-2-[4-(2-ethoxyphenyl)-piperazine-1-carbonyl]-6-methoxy-indan-1-yl}-1-[4-(2-ethoxyphenyl)-piperazin-1-yl]-ethanone] | 55.08 | 89.7 | 
COc1ccc(C2c3cc(OC)c(OC)cc3C(CCNC(=O)NCc3ccccc3)C2CNC(=O)NCc2ccccc2)cc1OC (centres unmarked) [AV-234, 10-benzyl-3-{2-[2-(3-benzyl-ureidomethyl)-3-(3,4-dimethoxyphenyl)-5,6-dimethoxy-indan-1-yl]-ethyl}-urea] | 12.50 |  | 37.58
CCOc1ccc(C2c3cc(OCC)c(OCC)cc3C(CC(=O)N3CCN(c4ccccc4OCC)CC3)C2C(=O)N2CCN(c3ccccc3OCC)CC2)cc1OCC (centres unmarked) [AV-253] | 19.8 |  | 92.03
COCC1C(CCN2CCN(C(=O)OCc3ccccc3)CC2)c2cc(OC)c(OC)cc2C1c1ccc(OC)c(OC)c1 (centres unmarked) [AV-200, 4-{2-[3-(3,4-dimethoxyphenyl)-5,6-dimethoxy-2-methoxymethyl-indan-1-yl]-ethyl}-piperazine-1-carboxylic acid benzyl ester] | 61.40 | 86.4 | 
CCOc1ccccc1N1CCN(CCC2c3cc(OC)c(OC)cc3C(c3ccc(OC)c(OC)c3)C2CN2CCN(c3ccccc3OCC)CC2)CC1 (centres unmarked) [AV-184, 2-{3-(3,4-dimethoxyphenyl)-5,6-dimethoxy-2-[4-(2-ethoxyphenyl)-piperazin-1-yl-methyl]-indan-1-yl}-1-[4-(2-ethoxyphenyl)-piperazin-1-yl]-ethane] | 50.58 | 53.7 | 
CCOC(=O)N1CCN(C(=O)CC2c3cc(OC)c(OC)cc3C(c3ccc(OC)c(OC)c3)C2C(=O)N2CCN(C(=O)OCC)CC2)CC1 (centres unmarked) [AV-174, 4-{2-[3-(3,4-dimethoxyphenyl)-5,6-dimethoxy-2-(piperazine-1-carboxylic acid ethyl ester)-indan-1-yl]-acetyl}-piperazine-1-carboxylic acid ethyl ester] | 18.50 |  | 23.1
COc1ccc(C2c3cc(OC)c(OC)cc3C(CCNC(=O)c3ccccc3)C2CNC(=O)c2ccccc2)cc1OC (centres unmarked) [AV-264] | 6.3 |  | 83.51
CCOc1ccccc1N1CCN(C(=O)CC2c3cc(OC)c(OCc4ccccc4)cc3C(c3ccc(OCc4ccccc4)c(OC)c3)C2C(=O)N2CCN(c3ccccc3OCC)CC2)CC1 (centres unmarked) [AV-205, 2-{5-benzyloxy-3-(4-benzyloxy-3-methoxyphenyl)-2-{4-(2-ethoxyphenyl)-piperazine-1-carbonyl}-6-methoxy-indan-1-yl}-1-{4-(2-ethoxyphenyl)-piperazin-1-yl]-ethanone] | 35.56 | 53.6 | 
CCOc1ccccc1N1CCN(C(=O)CC2c3cc(OC)c(OC)cc3C(c3ccc(OC)c(OC)c3)C2C(=O)N2CCN(C)CC2)CC1 (centres unmarked) [AV-256] | 8.7 |  | 75.61
COc1ccc(C2c3cc(OC)c(OC)cc3C(CC(=O)N(CC(C)C)CC(C)C)C2C(=O)N(CC(C)C)CC(C)C)cc1OC (centres unmarked) [AV-191, 1-[(diisobutylcarbamoyl)methyl]-3-(3,4-dimethoxyphenyl)-5,6-dimethoxy-indan-2-carboxylic acid diisobutylamide] | 63.49 | 64.9 | 
CCCc1ccc(C(=O)NCCC2c3cc(OC)c(OC)cc3C(c3ccc(OC)c(OC)c3)C2CNC(=O)c2ccc(CCC)cc2)cc1 (centres unmarked) [AV-262] | 18.0 |  | 83.47
CCN1CCN(C(=O)CC2c3cc(OC)c(OC)cc3C(c3ccc(OC)c(OC)c3)C2C(=O)N2CCN(CC)CC2)CC1 (centres unmarked) [AV-187, 2-[3-(3,4-dimethoxyphenyl)-5,6-dimethoxy-2-(4-ethylpiperazine-1-carbonyl)-indan-1-yl]-1-(4-ethylpiperazin-1-yl)-ethanone] | 23.50 | 2.7 | 
CCOc1ccccc1N1CCN(C(=O)CC2c3cc4c(cc3C(c3ccc5c(c3)OCO5)C2C(=O)N2CCN(c3ccccc3OCC)CC2)OCO4)CC1 (single isomer, unassigned) [AV-258-1, 2-{7-benzo[1,3]dioxol-5-yl-6-[4-(2-ethoxy-phenyl)-piperazin-1-carbonyl]-6,7-dihydro-5H-indeno[5,6-d][1,3]dioxol-5-yl}-1-[4-(2-ethoxy-phenyl)-piperazin-1-yl]-ethanone] | 7.9 | 69.9 | 
COc1ccc(C2c3cc(OC)c(OC)cc3C(CC(=O)N3CCN(CC=Cc4ccccc4)CC3)C2C(=O)N2CCN(CC=Cc3ccccc3)CC2)cc1OC (centres unmarked) [AV-172, 2-{3-(3,4-dimethoxyphenyl)-5,6-dimethoxy-2-[4-(3-phenylallyl)-piperazine-1-carbonyl]-indan-1-yl}-1-[4-(3-phenylallyl)piperazine-1-yl]-ethanone] | 68.57 | 86.7 | 
CCN(CC)C(=O)CC1c2cc(OC)c(OC)cc2C(c2ccc(OC)c(OC)c2)C1C(=O)N(CC)CC (centres unmarked) [AV-182, 1-(3,4-dimethoxyphenyl)-3-diethylcarbamoylmethyl-5,6-dimethoxy-indan-2-carboxylic acid diethyl amide] | 23.87 | 25 | 
CCCOc1ccc(C2c3cc(OCCC)c(OC)cc3C(CC(=O)N3CCN(c4ccccc4OCC)CC3)C2C(=O)N2CCN(c3ccccc3OCC)CC2)cc1OC (single isomer, unassigned) [AV-239-2] | 60 |  | 91.38
COc1ccc(C2c3cc(OC)c(OC)cc3C(CCNC(=O)c3ccccc3OC)C2CNC(=O)c2ccccc2OC)cc1OC (centres unmarked) [AV-265] | −0.2 |  | 93.0
COc1ccc(N2CCN(CCC3c4cc(OC)c(OC)cc4C(c4ccc(OC)c(OC)c4)C3CN3CCN(c4ccc(OC)cc4)CC3)CC2)cc1 (centres unmarked) [AV-183, 2-{3-(3,4-dimethoxyphenyl)-5,6-dimethoxy-2-[4-(4-methoxy)-piperazin-1-yl-methyl]-indan-1-yl}-1-[4-(4-methoxyphenyl)-piperazin-1-yl]-ethane] | 52.24 |  | 63.0
COc1cc(C2c3cc(O)c(OC)cc3C(CC(=O)N3CCC(Cc4ccccc4)CC3)C2C(=O)N2CCC(Cc3ccccc3)CC2)ccc1O (single isomer, unassigned) [AV-251-2] | 2.4 |  | 75.44
CCOc1ccccc1N1CCN(C(=O)CC2c3cc4c(cc3C(c3ccc5c(c3)OCO5)C2C(=O)N2CCN(c3ccccc3OCC)CC2)OCO4)CC1 (single isomer, unassigned) [AV-258-2, 2-{7-benzo[1,3]dioxol-5-yl-6-[4-(2-ethoxy-phenyl)-piperazin-1-carbonyl]-6,7-dihydro-5H-indeno[5,6-d][1,3]dioxol-5-yl}-1-[4-(2-ethoxy-phenyl)-piperazin-1-yl]-ethanone] | 19.2 |  | 67.09
COCC1C(CCN2CCN(Cc3ccccc3)CC2)c2cc(OC)c(OC)cc2C1c1ccc(OC)c(OC)c1 (centres unmarked) [AV-178, 1-benzyl-4-{2-[3-(3,4-dimethoxyphenyl)-5,6-dimethoxy-2-methoxymethyl-indan-1-yl]-ethyl}-piperazine] | 54.50 | 79 | 
COc1ccc(C2c3cc(OC)c(OC)cc3C(CCO[Si](c3ccccc3)(c3ccccc3)C(C)(C)C)C2CO)cc1OC (centres unmarked) [AV-175, [1-[2-t-butyldiphenyl-silanoxy)-ethyl-3-(3,4-dimethoxyphenyl)-5,6-dimethoxy-indan-2-yl]-methanol] | 52.50 |  | 71.3
COc1ccc(C2c3cc(OC)c(OC)cc3C(CCNC(=O)c3ccc(Br)cc3)C2CNC(=O)c2ccc(Br)cc2)cc1OC (centres unmarked) [AV-263] | 12.2 |  | 80.78
